Like-named read-outs stand apart in the source and are kept apart here.
Tests used:
HCT-15 = assay: MTT cytotoxicity assay, 2D monolayer; format: cell-based, human; conditions: 72 h, MTT test, colon carcinoma, read-out: IC50 (µM) ± S.D. HCT-15
Description: (§1) Human lung (A549), colon (HCT-15 and LoVo) and breast (MCF-7) carcinoma cell lines were obtained from American Type Culture Collection (ATCC, Rockville, MD, USA). Human pancreatic BxPC3 carcinoma cells were obtained from European Collection of Cell Culture (ECACC, Salisbury, UK). Human ovarian 2008 cancer cells were kindly provided by Prof. G. Marverti (Dept. of Biomedical Science of Modena University, Modena, Italy). Human squamous cervical A431 carcinoma cells were kindly provided by Prof. F. Zunino (Division of Experimental Oncology B, Istituto Nazionale dei Tumori, Milan, Italy). The LoVo-OXP cells were obtained as previously described. Cell lines were maintained in culture in the logarithmic phase at 37 °C in a 5% carbon dioxide atmosphere using the following media added of 10% fetal calf serum (Euroclone, Milan, Italy), antibiotics (50 units/mL penicillin and 50 μg/mL streptomycin), and 2 mM L-glutamine: (i) RPMI-1640 medium (Euroclone) for HCT-15, A431, MCF-7, BxPC3 and 2008 cells; (ii) F-12 HAM’S (Sigma Chemical Co.) for A549, LoVo and LoVo-OXP cells.
(§2) The growth inhibitory effect towards 2D tumor cell lines was evaluated by means of MTT assay as previously described. IC50 values were calculated by four parameters logistic (4-PL) model. All the values are the means ± SD of not less than five measurements starting from three different cell cultures.
(§3) The in vitro antitumor activity of copper(II) complexes 1–3 and the uncoordinated ligands [HC(COOH)(pz^Me2)2], [HC(COOH)(pz)2] and [HC(COOH)(tz)2] was evaluated against a panel of human cancer cell lines derived from solid tumors. Adherent cell lines representative of cervical (A431), pancreatic (BxPC3) colon (HCT-15), breast (MCF-7), lung (A549), and ovarian (2008) cancers, differently sensitive to cisplatin, were exposed to the indicated compounds for 72 h.

BxPC3 = assay: MTT cytotoxicity assay, 2D monolayer; format: cell-based, human; conditions: 72 h, MTT test, pancreatic carcinoma; read-out: IC50 (µM) ± S.D. BxPC3
Description: as §1, §2, §3

MCF-7 = assay: MTT cytotoxicity assay, 2D monolayer; format: cell-based, human; conditions: 72 h, MTT test, breast carcinoma, read-out: IC50 (µM) ± S.D. MCF-7
Description: as §1, §2, §3

A549 = assay: MTT cytotoxicity assay, 2D monolayer; format: cell-based, human; conditions: 72 h, MTT test, lung carcinoma, read-out: IC50 (µM) ± S.D. A549
Description: as §1, §2, §3

2008 = assay: MTT cytotoxicity assay, 2D monolayer; format: cell-based, human; conditions: 72 h, MTT test, ovarian cancer, read-out: IC50 (µM) ± S.D. 2008
Description: as §1, §2, §3

A431 = assay: MTT cytotoxicity assay, 2D monolayer; format: cell-based, human; conditions: 72 h, MTT test, cervical carcinoma; read-out: IC50 (µM) ± S.D. A431
Description: as §1, §2, §3

[1] = test system: HCT-15 colon cancer cell spheroids; assay: Acid phosphatase (APH) assay in 3D spheroids; format: cell-based, human; conditions: 72 h, APH test, read-out: IC50 (µM) ± S.D. HCT-15 spheroids
Procedure: Spheroid cultures were obtained by seeding 2.5 × 10^3 HCT-15 cells/well in round bottom non-tissue culture treated 96 well-plate (Greiner Bio-one, Kremsmünster, Austria) in phenol red free RPMI-1640 medium (Sigma Chemical Co.), containing 10% FCS and supplemented with 20% methyl cellulose stock solution.
An APH modified assay was used for determining cell viability in 3D spheroids, as previously described. IC50 values were calculated with a four parameter logistic (4-PL) model. All the values are the means ± SD of not less than four independent experiments.
The in vitro antitumor efficacy of the newly developed compounds was also tested on 3D colon cancer cell culture models. Differently from 2D monolayer culture, 3D spheroid cell culture systems comprise cancer cells in various cell growth stages. Consequently, the multicellular cancer spheroid model is recognized to better reflect the tumor mass in vivo regarding drug permeation, cell interactions, gene expression, hypoxia and nutrient gradients with respect to monolayer cell cultures. Table 4 summarizes the IC50 values obtained after treatment of 3D cell spheroids of human HCT-15 colon cancer cells with copper(II) compounds as well as with cisplatin, as reference drug. In accordance with 2D chemosensitivity assays, complex 3 was scarcely effective, whereas complex 1 was as effective as cisplatin. […] We hypothesize that in this non-proliferative and very resistant tumor model the higher lipophilicity of 1, due to the presence of methyl substituents on the pyrazolyl rings, might be responsible for the enhanced compound penetration in the core area of spheroids.

[2] = test system: panel of human cancer cell lines derived from solid tumors; assay: MTT cytotoxicity, whole panel of human cancer cell lines; format: cell-based; conditions: mean over the cell lines of Table 2, 72 h
Procedure: as §2, §3
(§4) HCT-15 colon cancer cells are notoriously poorly chemosensitive to cisplatin. […] As for cisplatin, the clinical effectiveness of OXP is seriously hampered by the cancer cell resistance and, at present, few other drug regimens are available for patients with OXP-refractory colorectal cancers. […] The RF values (calculated by dividing IC50 for resistant cells by those for sensitive ones) were about 10 times lower than that of OXP, excluding the occurrence of cross-resistance phenomena.

LoVo-OXP = assay: MTT cytotoxicity assay, cross-resistance profile; format: cell-based, human; conditions: for IC50: 72 h, MTT test, oxaliplatin-resistant colon cancer cells, read-out: IC50 (µM) ± S.D. LoVo-OXP; for RF (resistance factor): RF = IC50 (resistant cells)/IC50 (wild-type cells)
Description: as §1, §2, §4

LoVo = assay: MTT cytotoxicity assay, cross-resistance profile; format: cell-based, human; conditions: 72 h, MTT test, oxaliplatin-sensitive colon cancer cells; read-out: IC50 (µM) ± S.D. LoVo
Description: as §1, §2, §4

[3] = test system: 26S proteasome, caspase-like (C-L) activity; assay: Proteasome inhibition, caspase-like (C-L) activity; format: biochemical; conditions: isolated 26S rabbit proteasomes, 15 μM, 60 min
Procedure: (§5) The purified rabbit 26S proteasome (Sigma Aldrich) was incubated for 60 min at 37 °C in assay buffer (50 mM Tris-HCl, pH 7.5, 250 mM sucrose, 5 mM MgCl2, 1 mM DTT, and 0.5 mM EDTA), in the presence of 15 µM of 1–3 or 10 µM Lactacystin. Afterwards, fluorogenic peptides were added and substrate hydrolysis was measured after 30 min by monitoring spectrofluorometrically the release of AMC (excitation at 370 nm, emission at 460 nm).
(§6) The ability of copper complexes to hamper the functioning of each individual proteasome active site, chymotrypsin-like (CT-L), trypsin-like (T-L), and caspase-like (C-L) activities was assessed in isolated 26S rabbit proteasomes after incubation with 15 μM of tested compounds. Lactacystin, an irreversible nonpeptidomimetic proteasome inhibitor, was used as a positive control. […] Conversely, no significant effects were recorded towards the T-L site. Even if the chymotrypsin-like sites are the major drug targets in cancer, it has been recently observed that co-targeting trypsin-like site increased cytotoxicity of copper complexes acting as proteasome inhibitors.

Solubility = format: physicochemical
[4] = test system: 26S proteasome, chymotrypsin-like (CT-L) activity; assay: Proteasome inhibition, chymotrypsin-like (CT-L) activity; format: biochemical; conditions: isolated 26S rabbit proteasomes, 15 μM, 60 min
Procedure: as §5, §6

Stability to air = format: physicochemical; conditions: also as solutions
LoVo cells = assay: Cellular uptake (intracellular copper by GF-AAS); format: cell-based, human; conditions: 24 h, 2 μM
Procedure: LoVo cells (2.5 × 10^6) were seeded in 75 cm^2 flasks in growth medium (20 mL). After overnight incubation, the medium was replaced, and the cells were treated with tested compounds for 24 h. Cell monolayers were then processed and mineralized as previously described. The sample was analyzed for copper by using a Varian AA Duo graphite furnace atomic absorption spectrometer (Varian, Palo Alto, CA, USA) at the wavelength of 324 nm. The calibration curve was obtained using known concentrations of standard solutions purchased from Sigma Chemical Co.
With the purpose of underling a possible correlation between cellular uptake efficiency and cytotoxicity, LoVo cells were treated for 24 h with equimolar concentrations (2 μM) of copper(II) complexes and the intracellular copper amount was quantified by means of Graphite Furnace Atomic Absorption Spectrometry (GF-AAS) analysis. […] In fact, the intracellular copper content detected in LoVo cells follows the same cytotoxicity trend 1 > 2 > 3.

| SMILES | IC50 (HCT-15) | IC50 (BxPC3) | IC50 (MCF-7) | IC50 (A549) | IC50 2008 | IC50 (A431) | IC50 [1] | IC50 (LoVo-OXP) | RF (resistance factor) (LoVo-OXP; LoVo-OXP/LoVo) | IC50 (LoVo) | IC50 (HCT-15; Homo sapiens, HCT-15) | IC50 (MCF-7; Homo sapiens, MCF7) | IC50 (A549; Homo sapiens, A549) | IC50 (2008; Homo sapiens) | further results |
| --- | --- | --- | --- | --- | --- | --- | --- | --- | --- | --- | --- | --- | --- | --- | --- |
| N.N.[Cl][Pt][Cl] [Cisplatin, cisplatin, reference compound] | 15.3 ± 2.2 µM | 7.3 ± 1.2 µM | 8.8 ± 1.4 µM | 7.5 ± 1.2 µM | 2.2 ± 1 µM | 1.7 ± 0.5 µM | 65.9 ± 3.85 µM | – | – | – | – | – | – | – | IC50 [2]: 7.1 µM |
| O=C1[O][Pt]2([NH][C@@H]3CCCC[C@H]3[NH]2)[O]C1=O [Oxaliplatin, oxaliplatin, reference compound] | – | – | – | – | – | – | – | 15.2 ± 2.2 µM | 10.9 | 1.4 ± 0.7 µM | – | – | – | – | – |
| O=C(O)C(n1cccn1)n1cccn1 [[HC(COOH)(pz)2], bis(pyrazol-1-yl)acetic acid, reference compound] | – | – | – | – | – | – | – | – | – | – | > 100 µM | > 100 µM | > 100 µM | > 100 µM | – |
| Cc1cc(C)n(C(C(=O)O)n2nc(C)cc2C)n1 [[HC(COOH)(pz^Me2)2], bis(3,5-dimethylpyrazol-1-yl)acetic acid, reference compound] | – | – | – | – | – | – | – | – | – | – | > 100 µM | > 100 µM | > 100 µM | > 100 µM | – |
| O=C(O)C(n1cncn1)n1cncn1 [[HC(COOH)(tz)2], bis(1,2,4-triazol-1-yl)acetic acid, reference compound] | – | – | – | – | – | – | – | – | – | – | > 100 µM | > 100 µM | > 100 µM | > 100 µM | – |
| O=C(O)C(n1cccn1)n1cccn1.O=C(O)C(n1cccn1)n1cccn1.[Cu+2].[O-][Cl+3]([O-])([O-])[O-].[O-][Cl+3]([O-])([O-])[O-] [compound 2, [HC(COOH)(pz)2]2Cu(ClO4)2] | 9.3 ± 2.7 µM | 7.5 ± 1.2 µM | 10.2 ± 2.5 µM | 5.5 ± 0.2 µM | 7.9 ± 1.4 µM | 12.7 ± 1.2 µM | 107.8 ± 1 µM | 4.9 ± 0.6 µM | 1.2 | 4 ± 0.5 µM | – | – | – | – | effect on C-L proteasome activity [3]: able to affect CT-L and C-L activities, even if to a lesser extent than lactacystin; solubility in methanol, DMSO and acetonitrile (Solubility; methanol, DMSO, acetonitrile): soluble; solubility in water (Solubility; water): soluble; effect on CT-L proteasome activity [4]: able to affect CT-L and C-L activities, even if to a lesser extent than lactacystin; air stability (Stability to air): air stable even as solutions; RF times lower than that of OXP (LoVo-OXP; LoVo-OXP/LoVo): about 10 times; IC50 [2]: 8.9 µM |
| CO.O=C(O)C(n1cncn1)n1cncn1.O=C(O)C(n1cncn1)n1cncn1.[Cu+2].[O-][Cl+3]([O-])([O-])[O-].[O-][Cl+3]([O-])([O-])[O-] [compound 3, [HC(COOH)(tz)2]2Cu(ClO4)2·CH3OH] | 59.5 ± 2.7 µM | 18.5 ± 4.4 µM | 39.6 ± 4.6 µM | 24.5 ± 1.9 µM | 69.3 ± 4.7 µM | 15.9 ± 5.8 µM | > 100 µM | 32.5 ± 1 µM | 2.1 | 15.3 ± 1 µM | – | – | – | – | effect on C-L proteasome activity [3]: able to affect CT-L and C-L activities, even if to a lesser extent than lactacystin; solubility in DMSO (Solubility; DMSO): soluble; effect on CT-L proteasome activity [4]: able to affect CT-L and C-L activities, even if to a lesser extent than lactacystin; air stability (Stability to air): air stable even as solutions; cellular uptake efficiency (intracellular copper amount) (LoVo cells): lowest cellular uptake efficiency |
